“And” between values parts separate entries of the source, which are not always exact repeats. Equal values may be shown once.
Columns and labels:
[1] = test system: NDK virus; assay: Number of syncitia in MT4 cell culture infected by NDK virus; format: cell-based, HIV; set-up: key to Number of Syncitia in the Culture (wells), J3 / Number of Syncitia in the Culture (wells), J4 / Number of Syncitia in the Culture (wells), J5 / Number of Syncitia in the Culture (wells), J6: the absence of syncitia is indicated by a minus (−) sign; the (+), +, ++, ++T signs indicate an increasing number of syncitia in each well; the (+), +, ++, ++T signs indicate an increasing number of syncitia in each well; the (+), +, ++, ++T signs indicate an increasing number of syncitia in each well; the (+), +, ++, ++T signs indicate an increasing number of syncitia in each well; The indication “T” indicates the death of the cells; conditions: 10 μg/mL; for Number of Syncitia in the Culture (wells), J3: day 3; for Number of Syncitia in the Culture (wells), J4: day 4; for Number of Syncitia in the Culture (wells), J5: day 5; for Number of Syncitia in the Culture (wells), J6: day 6
Method: Then infection of the cells was carried out by adding to each well, with the exception of those wells being used as control cells, 50 μL of previously titrated virus dilution.
After an additional hour of incubation, the plate was centrifuged and the supernatant containing the residual virus was discarded.
After 3 days of culture, the cells were diluted to half and the syncitia were observed using the inverse microscope from day 3 to day 7 after having been placed in suspension.
In the third case, the MT4 cell culture was preincubated for one hour at 37° C., then the cells were infected, the whole was subjected to incubation for one hour at 37° C., then to centrifugation with the elimination of the supernatant containing the virus that had not penetrated into the cells.
In each of the four types of experiments that have just been described, and as previously indicated, the cells were diluted to half after three days of culture and then the syncitia were observed using the inverted microscope from day 3 to day 7.
In the experiments described in greater detail hereinafter, the absence of syncitia is indicated by a minus (−) sign and the (+), +, ++, ++T signs indicate an increasing number of syncitia in each well.
The indication “T” indicates the death of the cells.

[2] = test system: RT of the UG92029 virus; assay: Direct inhibitory action on RT of the UG92029 virus; format: biochemical, HIV; conditions: viral concentration corresponding to RT activity of 220,000 dpm, FIG. 7
Text: (§1) In order to perform these measurements, the method described in detail hereinbefore was followed (Example 2).

[3] = test system: RT of the PIC CH virus; assay: Direct inhibitory action on RT of the PIC CH virus; format: biochemical, HIV; conditions: viral concentration corresponding to RT activity of 105,000 dpm, FIG. 8
Text: as §1

[4] = target: T1, RT of the NDK virus (Human immunodeficiency virus type 1 group M subtype D, UniProt P18802); assay: Direct inhibitory action on RT of the NDK virus; format: biochemical, HIV; conditions: viral concentration corresponding to RT activity of 81,000 dpm, FIG. 9
T1 construct: host or cells: virus preparation (native virion RT)
Text: as §1

[5] = test system: CEM cells; assay: In vitro cytotoxicity, number of CEM cells
[6] = Continuous, before, during and after infection

Dextran sulphate
Number of Syncitia in the Culture (wells), J3 ([1]; After infection): − | Number of Syncitia in the Culture (wells), J4 ([1]; After infection): − and + | Number of Syncitia in the Culture (wells), J5 ([1]; After infection): − and ++ | Number of Syncitia in the Culture (wells), J6 ([1]; After infection): − and T | Number of Syncitia in the Culture (wells), J3 ([1]; Before infection): − | Number of Syncitia in the Culture (wells), J4 ([1]; Before infection): − | Number of Syncitia in the Culture (wells), J5 ([1]; Before infection): − | Number of Syncitia in the Culture (wells), J6 ([1]; Before infection): − | Number of Syncitia in the Culture (wells), J3 [1, 6]: − | Number of Syncitia in the Culture (wells), J4 [1, 6]: + | Number of Syncitia in the Culture (wells), J5 [1, 6]: ++ | Number of Syncitia in the Culture (wells), J6 [1, 6]: T | Number of Syncitia in the Culture (wells), J3 ([1]; During infection): − | Number of Syncitia in the Culture (wells), J4 ([1]; During infection): − and (+) | Number of Syncitia in the Culture (wells), J5 ([1]; During infection): − and ++ | Number of Syncitia in the Culture (wells), J6 ([1]; During infection): ++ and T | wells inhibited ([1]; cells treated before viral infection): 2 wells out of 2 inhibited | inhibition of RT ([2]; 2.5 μg/mL): 6% | inhibition of RT ([2]; 3 μg/mL): 8% | inhibition of RT ([3]; 0.6 μg/mL): does not produce any inhibition at all | inhibition of RT ([3]; 0.8 μg/mL): still does not induce any inhibition | inhibition of RT ([4]; 0.6 μg/mL): 11% | inhibition of RT ([4]; 0.8 μg/mL): 18% | Number of CEM cells ([5]; Day 1, 125 μg/mL): 500000 mL⁻¹ and 900000 mL⁻¹ | Number of CEM cells ([5]; Day 1, 250 μg/mL): 500000 mL⁻¹ and 900000 mL⁻¹ | Number of CEM cells ([5]; Day 1, 1000 μg/mL): 800000 mL⁻¹ and 500000 mL⁻¹ | Number of CEM cells ([5]; Day 2, 125 μg/mL): 1.5e+06 mL⁻¹ and 1e+06 mL⁻¹ | Number of CEM cells ([5]; Day 2, 250 μg/mL): 1.3e+06 mL⁻¹ and 1.4e+06 mL⁻¹ | Number of CEM cells ([5]; Day 2, 500 μg/mL): 1.3e+06 mL⁻¹ and 1.7e+06 mL⁻¹ | Number of CEM cells ([5]; Day 2, 1000 μg/mL): 1.3e+06 mL⁻¹ and 1.7e+06 mL⁻¹ | Number of CEM cells ([5]; Day 3, 125 μg/mL): 2.3e+06 mL⁻¹ and 2.1e+06 mL⁻¹ | Number of CEM cells ([5]; Day 3, 250 μg/mL): 1.9e+06 mL⁻¹ | Number of CEM cells ([5]; Day 3, 500 μg/mL): 2.1e+06 mL⁻¹ and 1.5e+06 mL⁻¹ | Number of CEM cells ([5]; Day 3, 1000 μg/mL): 2e+06 mL⁻¹ and 2.7e+06 mL⁻¹
